Measured values reported in ChEMBL document CHEMBL5154672, “Design and synthesis of HDAC inhibitors to enhance the therapeutic effect of diffuse large B-cell lymphoma by improving metabolic stability and pharmacokinetic characteristics” (Eur J Med Chem, 2022).
Values after ≈ are worked out from the molar mass of the structure shown.

Legend:
[1] = Metabolic stability in human liver microsomes assessed as half life measured for 75 to 130 mins by LC-MS/MS analysis; assay type: ADME, Microsome; conditions: liver microsomes, time 75-130 min
[2] = Metabolic stability in rat liver microsomes assessed as half life measured for 75 to 130 mins by LC-MS/MS analysis; assay type: ADME, Microsome; conditions: time 75-130 min
[3] = Cmax in ICR mouse at 25 mg/kg, po measured upto 24 hrs by LC-MS/MS analysis; assay type: ADME, organism-based; parameters: time < 24 hrs, dose 25 mg/kg, route po; conditions: in vivo
[4] = system: TMD8; assay: Induction of apoptosis in human TMD8 cells assessed as necrotic cells at 2 uM incubated for 24 hrs by Annexin V-FITC/PI staining based flow cytometric analysis (reference value: 1.85%); assay type: functional
[5] = system: HCT-116; assay: Antiproliferative activity against human HCT-116 cells assessed as remaining cell activity at 2 uM incubated for 72 hrs by luminescence assay relative to control; assay type: functional
[6] = system: TMD8; assay: Induction of apoptosis in human TMD8 cells assessed as early apoptotic cells at 4 uM incubated for 24 hrs by Annexin V-FITC/PI staining based flow cytometric analysis (reference value: 0.24%); assay type: functional
[7] = AUC (0 to infinity) in CB.17 SCID mouse xenografted with human TMD8 cells at 100 mg/kg, po measured upto 24 hrs by LC-MS/MS analysis; assay type: ADME, organism-based; parameters: time < 24 hrs, dose 100 mg/kg, route po; conditions: in vivo
[8] = system: NCI-H460; assay: Antiproliferative activity against human NCI-H460 cells incubated for 72 hrs by luminescence assay; assay type: functional, cell-based; conditions: NCI-H460, 72 h
[9] = Metabolic stability in mouse liver microsomes assessed as half life measured for 75 to 130 mins by LC-MS/MS analysis; assay type: ADME, Microsome; conditions: time 75-130 min
[10] = system: RS4-11; assay: Antiproliferative activity against human RS4-11 cells incubated for 72 hrs by luminescence assay; assay type: functional, cell-based; conditions: RS4-11, 72 h
[11] = AUC (0 to t) in CB.17 SCID mouse xenografted with human TMD8 cells at 25 mg/kg, po measured upto 24 hrs by LC-MS/MS analysis; assay type: ADME, organism-based; parameters: dose 25 mg/kg, time < 24 hrs, route po; conditions: in vivo
[12] = system: CWR22R; assay: Antiproliferative activity against human 22Rv1 cells incubated for 72 hrs by luminescence assay; assay type: functional, cell-based; conditions: 22Rv1, 72 h
[13] = system: TMD8; assay: Antiproliferative activity against human TMD8 cells incubated for 72 hrs by luminescence assay; assay type: functional, cell-based; conditions: TMD8, 72 h
[14] = system: 786-0; assay: Antiproliferative activity against human 786-O cells incubated for 72 hrs by luminescence assay; assay type: functional, cell-based; conditions: 786-0, 72 h
[15] = system: TMD8; assay: Induction of apoptosis in human TMD8 cells assessed as late apoptotic cells at 4 uM incubated for 24 hrs by Annexin V-FITC/PI staining based flow cytometric analysis (reference value: 1.54%); assay type: functional
[16] = Metabolic stability in dog liver microsomes assessed as half life measured for 75 to 130 mins by LC-MS/MS analysis; assay type: ADME, Canis lupus familiaris, Microsome; conditions: time 75-130 min
[17] = system: A549; assay: Antiproliferative activity against human A549 cells assessed as remaining cell activity at 2 uM incubated for 72 hrs by luminescence assay relative to control; assay type: functional
[18] = MRT(0 to infinity) in CB.17 SCID mouse xenografted with human TMD8 cells at 50 mg/kg, po measured upto 24 hrs by LC-MS/MS analysis; assay type: ADME, organism-based; conditions: in vivo
[19] = system: TMD8; assay: Induction of apoptosis in human TMD8 cells assessed as necrotic cells at 4 uM incubated for 24 hrs by Annexin V-FITC/PI staining based flow cytometric analysis (reference value: 1.85%); assay type: functional
[20] = system: TMD8; assay: Induction of apoptosis in human TMD8 cells assessed as necrotic cells at 1 uM incubated for 24 hrs by Annexin V-FITC/PI staining based flow cytometric analysis (reference value: 1.85%); assay type: functional
[21] = MRT(0 to infinity) in CB.17 SCID mouse xenografted with human TMD8 cells at 100 mg/kg, po measured upto 24 hrs by LC-MS/MS analysis; assay type: ADME, organism-based; conditions: in vivo
[22] = system: TMD8; assay: Induction of apoptosis in human TMD8 cells assessed as late apoptotic cells at 2 uM incubated for 24 hrs by Annexin V-FITC/PI staining based flow cytometric analysis (reference value: 1.54%); assay type: functional
[23] = Aqueous solubility of the compound; assay type: physicochemical; conditions: aqueous medium
[24] = system: HuT78; assay: Antiproliferative activity against human HuT78 cells incubated for 72 hrs by luminescence assay; assay type: functional, cell-based; conditions: HuT78, 72 h
[25] = system: NCI-H441; assay: Antiproliferative activity against human NCI-H441 cells incubated for 72 hrs by luminescence assay; assay type: functional, cell-based; conditions: NCI-H441, 72 h
[26] = system: TMD8; assay: Induction of apoptosis in human TMD8 cells assessed as viable cells at 2 uM incubated for 24 hrs by Annexin V-FITC/PI staining based flow cytometric analysis (reference value: 96.4%); assay type: functional; conditions: read-out: Activity
[27] = AUC (0 to infinity) in CB.17 SCID mouse xenografted with human TMD8 cells at 50 mg/kg, po measured upto 24 hrs by LC-MS/MS analysis; assay type: ADME, organism-based; parameters: dose 50 mg/kg, time < 24 hrs, route po; conditions: in vivo
[28] = molecular target: Histone deacetylase 3 (Homo sapiens, UniProt O15379); assay: Inhibition of HDAC3 (unknown origin) using RHKK(Ac)AMC fluorogenic peptide as substrate preincubated for 10 mins followed by substrate addition for 1 hr in presence of ATP by fluoroscence based assay
[29] = system: CCRF-CEM; assay: Antiproliferative activity against human CCRF-CEM cells incubated for 72 hrs by luminescence assay; assay type: functional, cell-based
[30] = MRT (0 to t) in CB.17 SCID mouse xenografted with human TMD8 cells at 25 mg/kg, po measured upto 24 hrs by LC-MS/MS analysis; assay type: ADME, organism-based; conditions: in vivo
[31] = system: TMD8; assay: Induction of apoptosis in human TMD8 cells assessed as early apoptotic cells at 1 uM incubated for 24 hrs by Annexin V-FITC/PI staining based flow cytometric analysis (reference value: 0.24%); assay type: functional
[32] = system: TMD8; assay: Induction of apoptosis in human TMD8 cells assessed as late apoptotic cells at 0.5 uM incubated for 24 hrs by Annexin V-FITC/PI staining based flow cytometric analysis (reference value: 1.54%); assay type: functional
[33] = system: MOLT-4; assay: Antiproliferative activity against human MOLT-4 cells incubated for 72 hrs by luminescence assay; assay type: functional, cell-based; conditions: MOLT-4, 72 h
[34] = system: TMD8; assay: Induction of apoptosis in human TMD8 cells assessed as necrotic cells at 0.5 uM incubated for 24 hrs by Annexin V-FITC/PI staining based flow cytometric analysis (RVB=1.85%); assay type: functional
[35] = system: HCT-116; assay: Antiproliferative activity against human HCT-116 cells incubated for 72 hrs by luminescence assay; assay type: functional, cell-based; conditions: HCT-116, 72 h

Histone deacetylase 3, sequence (O15379 whole entry): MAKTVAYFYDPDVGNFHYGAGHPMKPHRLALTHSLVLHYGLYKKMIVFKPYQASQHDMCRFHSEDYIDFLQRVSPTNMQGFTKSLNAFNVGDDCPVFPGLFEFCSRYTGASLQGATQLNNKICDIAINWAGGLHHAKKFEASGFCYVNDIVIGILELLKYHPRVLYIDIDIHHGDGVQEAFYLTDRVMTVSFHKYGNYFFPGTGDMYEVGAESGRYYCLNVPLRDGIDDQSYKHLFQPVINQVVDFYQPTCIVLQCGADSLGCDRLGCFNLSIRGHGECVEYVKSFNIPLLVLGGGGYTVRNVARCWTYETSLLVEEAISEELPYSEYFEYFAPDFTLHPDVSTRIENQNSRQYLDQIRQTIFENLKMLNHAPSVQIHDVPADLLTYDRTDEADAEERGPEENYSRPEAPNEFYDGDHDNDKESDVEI

half-life [1]: 13.3 h
half-life [2]: 1.75 h
Cmax [3]: 3100 ng/mL
AUC(0-inf) [7]: 9770 ng·h/mL
IC50 [8]: 1580 nM
half-life [9]: 2.88 h
IC50 [10]: 470 nM
AUC(0-t) at 24 h [11]: 1220 ng·h/mL
IC50 [14]: 600 nM
half-life [16]: 17.9 h
MRT inf [18]: 0.821 h
MRT inf [21]: 1.51 h
solubility [23]: 5 ng/mL (≈ 0.0121 µM)
IC50 [25]: 2620 nM
AUC(0-inf) [27]: 9730 ng·h/mL
IC50 [28]: 443 nM
IC50 [29]: 480 nM
MRT last at 24 h [30]: 0.75 h
IC50 [33]: 380 nM
IC50 [35]: 1160 nM
Compound: Nc1ccccc1NC(=O)c1ccc(CN2CCC/C(=C\c3ccccn3)C2=O)cc1
Activity [4]: 6.52%
Activity [5]: 44.01%
Activity [6]: 24.8%
IC50 [12]: 1140 nM
IC50 [13]: 310 nM
Activity [15]: 9.64%
Activity [17]: 48.53%
Activity [19]: 8.19%
Activity [20]: 3.64%
Activity [22]: 7.94%
IC50 [24]: 800 nM
viability at 2 µM [26]: 75.3%
Activity [31]: 1.03%
Activity [32]: 1.59%
Activity [34]: 2.29%
